Laboratory results taken from patent publication US4578376A, “Pharmaceutical compositions for the treatment of osteopathias” (Istituto Gentili S.p.A., priority 1981, dated 1986).
“Also recorded” adds a separate entry of the source. Where a name gives a salt, the structure may show the parent alone. Read-outs that look alike come from different tables or passages of the source.

Legend:
Toxicity (DL50) in rats = conditions: rat, in vivo, iv; I.v., rats (footnote *)
[1] = Toxicity (DL50) in Swiss mice; type: in vivo, both male and female; conditions: mouse, in vivo, Swiss mice male and female
Excerpt: (§1) In vivo, the degree of toxicity of AHEDP has been determined in Swiss mice, both male and female by various routes of administration and by comparison with some of the best known and used diphosphonates.

calvaria cells = assay: cells; type: cell-based, Wistar rats
Method: Cellular culture; the cells are first cultured in accordance with the method reported by Fast, et al., (Biochemical Journal, 172, 97-107 (1978). In short, calvaria removed from Wistar rats one day old has been digested with collagenase. The freed cells have been placed on plates in a concentration of […] per ml of medium in Petri dishes of 3.5 cm diameter containing 1.5 ml of medium in dishes of 1.6 cm diameter containing 0.5 ml of medium. The cells have been cultivated in the essential minimum medium containing 10% of fetal calf serum in an atmophere of 5% CO2 at 37° C. up to the seventh or eighth day. The diphosphonates have been added on the first day up to the end of the experiment.
The cells have been counted with a Coulter counter after having been freed from the dishes by digestion with a mixture of collagenase and trypsin. On the seventh day, the mixture has been changed and the cells have been incubated for sixteen hours. The so obtained lactate during this period has been measured according to the method of Fast, et al.

[2] = no APD clinical test described in the patent; cited from earlier work
[3] = solutions, very low concentrations; cited from earlier work
[4] = oral route or systemic route; cited from earlier work
[5] = test system: demineralizing osteopathias, characterized by a high rate of bone reabsorption; assay: Clinical study: metabolism of phosphorus and calcium, indexes of bone reabsorption; type: in vivo
Excerpt: In view of the favorable pharmacological and toxicological results, the substance, AHEDP, has been tested clinically. The study deals with the effects on the metabolism of phosphorus and calcium of the new diphosphonate according to the present invention used in the treatment of demineralizing osteopathias, characterized by a high rate of bone reabsorption.
(§2) Six individuals affected by the bone disease called Paget's condition, that is three men and three women of age between 52 and 68; three individuals affected by metastatic osteolysis, resulting from mammary carcinoma, that is three women between age 42 and 59 years old.
(§3) In eight cases, that is five individuals affected by Paget's disease and three individuals affected by osteolysis, the treatment has been carried out for fifteen days (in one of the cases of the individuals affected by Paget's disease, treatment continued for an additional fifteen days of therapy with a higher dosage); in the ninth case of the individual affected by Paget's disease, the treatment was continued for thirty days.
(§4) The first four cases, that is two individuals affected by Paget's disease and two individuals affected by osteolysis, have received dosage of AHEDP of 5 mg daily by the intravenous route (slow infusion); in the fifth case, the individual affected by Paget's disease, received a dose of 10 mg daily for fifteen days and then 20 mg daily for an additional period of fifteen days. Three other cases, that is two individuals affected by Paget's disease and one individual affected by osteolysis have been administered doses of 20 mg daily for fifteen days. The ninth individual affected by Paget's disease, has been treated with doses of 40 mg daily for 30 days.
(§5) Several parameters have been studied prior to the treatment, during the treatment and at the end of the treatment with respect to the metabolism of phosphorus and calcium and the tolerability of the substance.
calcemia, phosphatemia, alkaline phosphatasemia, plasmatic PGE2, plasmatic iPTH, calciuria, phosphaturia, hydroxyprolinuria, cyclic nephrogenic AMP.

[6] = Clinical study: tolerability; type: in vivo
Excerpt: as §2, §3, §4, §5
Hemochromocytometric examination, proteinemia, glycemia, azotemia, creatininemia, transaminasemia, immunoglobulin.

Swiss mice = assay: Toxicity (DL50) in Swiss mice; type: in vivo, both male and female
Excerpt: as §1

bone reabsorption = assay: Bone reabsorption and in vivo calcification (mineral density in the tibia metaphysis, body weight); parameters: species or system Wistar rats
Method: Groups of five Wistar rats of weight between 180 and 200 grams have been treated for seven days with 0.01, 0.1, 1.0 and 10 mg P/kg of AHEDP or with a physiological solution by the subcutaneous route. The animals have been fed with Altromine 1314 containing 1.1 gram per 100 grams of calcium, 1.2 grams per 100 grams P and 250 IU per 100 grams of Vitamin D3. On the eighth day, the animals were killed and the tibia bones are removed and fixed in 50% ethanol. The tibia bones were then prepared for the histological examination and sections of 70-80μ thickness have been prepared for the microradiological study. This procedure has permitted an estimate of the mineral density in the metaphysis (Schenk, et al. Calc. Tiss. Res. 11, 196-214, 1973).

Solubility = type: physicochemical
[7] = Rattus norvegicus, read-out: No. of Cells, % of control ± E.S.

`CC(O)(P(=O)(O)O)P(=O)(O)O` [EHDP, Ethane-1-hydroxy-1,1-diphosphonic acid disodium salt] gave an LD50 (Toxicity (DL50) in rats) of 35 mg/kg, an LD50 ([1]; ip, I.p.) of 250 mg/kg and an LD50 ([1]; po, OS (orally)) of 2000 mg/kg.

`NCCC(O)(P(=O)([O-])O)P(=O)([O-])O.[Na+].[Na+]` [APD, 3-Amino-1-hydroxypropane-1,1-diphosphonic acid disodium salt] showed an LD50 ([1]; ip, I.p.) of 190 mg/kg, an LD50 ([1]; iv, I.v.) of 45 mg/kg and an LD50 ([1]; po, OS (orally)) of 625 mg/kg. It also gave an activity at 2.5 µM (calvaria cells; [7]) of 90.8 ± 2.1%, an activity at 25 µM (calvaria cells; [7]) of 64.9 ± 4.1% and an activity at 250 µM (calvaria cells; [7]) of 0%. For the same compound, the “alterations in body temperature and hematic crasia (comparison analog)” value [2] was “causes substantial alterations in the parameters discussed hereinabove”.

In the case of `O=P(O)(O)OP(=O)(O)O` [pyrophosphate], the “precipitation of calcium phosphate” value [3] is listed as “capable of inhibiting the precipitation of calcium phosphate” and the hydrolysis on administration [4] is listed as “rapid hydrolysis”.

In the case of `NCCCCCC(O)(P(=O)(O)O)P(=O)(O)O` [AHEDP, 6-amino-1-hydroxyhexane-1,1-diphosphonic acid], the “plasmatic PGE2” value ([5]; 10 mg daily, one individual with Paget's disease) is reported as “has not caused any change in this parameter”, the “osteolysis and plasmatic alkaline phosphatase (both parameters)” value ([5]; 40 mg daily, one individual) is reported as “a reduction of both parameters” and the alkaline phosphatasemia ([5]; 40 mg daily, one individual (Paget's disease in active phase)) is reported as “clear and rapid decrease of the alkaline phosphatasemia levels”. For the same compound, the “urinary excretion of inorganic calcium and inorganic phosphates” value ([5]; 5-10 mg daily) was “have not modified to a significant degree”, the “alkaline phosphatasemia / indexes of osteoblastic activity” value ([5]; 5-10-20 mg daily) was “have not been modified; also recorded: have not caused significant modifications in the plasmatic alkaline phosphatase” and the osteolysis ([5]; 5-10-20 mg daily) was “blocking osteolysis”. For the same compound, the “indexes of parathyroid activity (plasmatic immunoreactive PTH, cyclic nephrogenic AMP)” value ([5]; 5-10-20-40 mg daily) was “have not caused significant modification changes in the indexes of parathyroid activity”, the “plasmatic PGE2” value ([5]; 20-40 mg daily, three individuals with Paget's disease and high prior levels) was “substantial and rapid decrease in the plasmatic PGE2 in all three individuals” and the “urinary excretion of inorganic calcium and inorganic phosphates” value ([5]; 20-40 mg daily, obvious particularly in phosphaturia) was “significant increases of these two parameters”. The “urinary excretion of hydroxyproline” value ([5]; all the individuals treated) was “reduced to a significant extent in all the individuals treated; also recorded: prompt and progressive reduction of the urinary excretion of hydroxyproline”, the “calcium and phosphate levels of the plasma” value ([5]; every dosage used) was “has not caused variations worth mentioning” and the hyperphosphatemia ([5]; human, in vivo) was “phases of hyperphosphatemia have not been observed”. The calcemia ([5]; very short periods of some treatments) was “a low degree of calciemic contents have been noted”, the “hydroxyprolinuria, dependence on dosage” value ([5]; with respect to the values prior to treatment) was “so much greater with respect to the values prior to treatment, the higher the dosage” and the tolerability ([6]; 5-40 mg daily intravenous, 15-30 days) was “well tolerated; also recorded: tolerated in all cases”. For the same compound, the “variations in the parameters of tolerability” value ([6]; hemochromocytometric examination, proteinemia, glycemia, azotemia, creatininemia, transaminasemia, immunoglobulin) was “has not caused significant variations in the parameters of tolerability”, the “increase of the body temperature or variation in the hematic crasia” value ([6]; human, in vivo) was “in none of the individuals treated, there has been observed an increase of the body temperature or any variation in the hematic crasia” and the “modifications of the hematic crasia and hepatic and renal functions” value ([6]; human, in vivo) was “nor have substantial modifications of the hematic crasia and hepatic and renal functions been noted”. The side effects ([6]; human, in vivo) was “no side effects of any significance have been noted; also recorded: no undesirable side effects have been noted”, the “degree of toxicity (in words)” value (Swiss mice; every route of administration) was “low degree of toxicity in every route of administration” and the “tolerance in comparison with the analog ADP” value (Swiss mice; mouse, in vivo) was “superior tolerance”. The LD50 ([1]; ip, I.p.) was 650 mg/kg, the LD50 ([1]; iv, I.v.) was 85 mg/kg and the LD50 ([1]; po, OS (orally)) was greater than 2000 mg/kg. The “effect on the number of cells (in words)” value (calvaria cells; 250 μM) was “some reductions, although slightly in the number of cells”, the “effect on the production of the lactate (in words)” value (calvaria cells; 250 μM) was “increase in the production of the lactate” and the activity at 0.25 µM (calvaria cells; Rattus norvegicus, 0.25 μM, read-out: No. of Cells, % of control ± E.S.) was 96.6 ± 1.7%. For the same compound, the activity at 2.5 µM (calvaria cells; Rattus norvegicus, 2.5 μM, * = significance with respect to the control (APD), read-out: No. of Cells, % of control ± E.S.) was 95.7 ± 7.8%, the activity at 25 µM (calvaria cells; Rattus norvegicus, 25 μM, * = significance with respect to the control (APD), read-out: No. of Cells, % of control ± E.S.) was 104 ± 2.1% and the activity at 250 µM (calvaria cells; Rattus norvegicus, 250 μM, * = significance with respect to the control (AHEDP), read-out: No. of Cells, % of control ± E.S.) was 88.4 ± 1.5%. For the same compound, the “cellular toxicity, times less than APD” value (calvaria cells; compared with the analog APD) was “about 100 times less”, the “effect on the cellular behavior” value (calvaria cells; concentrations lower than 250 μM) was “no negative effect is noted on the cellular behavior” and the “density of the bone” value (bone reabsorption; 0.01 mg P/kg, subcutaneous, seven days) was “no effect on the density of the bone”. The “inhibition of the bone reabsorption” value (bone reabsorption; 0.1 mg and particularly 1 mg P/kg) was “a clear inhibition of the bone reabsorption”, the “density of the metaphyses” value (bone reabsorption; 0.1 mg and particularly 1 mg P/kg, subcutaneous, seven days) was “an increase in the density of the metaphyses” and the “influence on the body weight” value (bone reabsorption; 0.01, 0.1, 1.0 mg P/kg, subcutaneous, seven days) was “No treatment has shown any influence on the body weight”. For the same compound, the “influence on the body weight” value (bone reabsorption; 10 mg P/kg, subcutaneous, seven days) was “except in the dose of 10 mg P/kg, which obviously has no significant value”, the “inhibition of the bone reabsorption, in words and in comparison with other well-known diphosphonates” value (bone reabsorption; rat, in vivo) was “powerful inhibitor of the bone reabsorption in a degree superior or similar to that of other well-known diphosphonates” and the “solubility in HCl” value (Solubility; HCl of average concentration) was “dissolves in HCl of average concentration”. For the same compound, the solubility in water (Solubility; water) was “little soluble in water” and the “solubility with NaOH” value (Solubility; water with addition of one equivalent of NaOH) was “dissolves completely by addition of one equivalent of NaOH”.

`O=P([O-])([O-])C(Cl)(Cl)P(=O)(O)O.[Na+].[Na+]` [Cl2 MDP, Dichloromethylenediphosphonic acid disodium salt] gave an LD50 ([1]; ip, I.p.) of 780 mg/kg, an LD50 ([1]; iv, I.v.) of 75 mg/kg and an LD50 ([1]; po, OS (orally)) greater than 2000 mg/kg.
